Assay results taken from patent publication US9006459B2, “Fluorescent markers and use thereof for labeling specific protein targets” (University of Ottawa, priority 2010, dated 2015).

Columns and labels:
[1] = Fluorescence enhancement (FE) ratio upon reaction with excess MPA; assay type: physicochemical; details: for FE (fluorescence enhancement ratio): HEPES (pH 7.4)/DMSO 5%, final divided by initial fluorescence intensity
Description: (§1) Spectroscopic characterization of fluorogen 5 included absorbance and fluorescence emission maxima as well as the fluorescence enhancement (FE) ratio. The spectroscopic characteristics were evaluated in two solvent systems (DMSO and HEPES (pH 7.4)/5% DMSO). The FE ratio determination was carried out by reacting 5 with excess mercaptopropionic acid (MPA) and then dividing the final fluorescence by the initial fluorescence intensity, at a specific fluorogen concentration.
Determination of Fluorescence Enhancement Ratios
(§2) Absorbance spectra were recorded at 25° C., with a Cary-100 spectrometer. Emission spectra and fluorescence intensity measurements were recorded at 25° C. with a Cary Eclipse fluorometer. Excitation and emission slits were fixed at 5 nm
3-Mercaptopropionic acid (50 eq) was added to a 1 to 4 mM DMSO solution of fluorogen. The resulting mixture was stirred at 25° C., in the dark for 18 hours after which fluorescence intensities of a dilution in HEPES buffer (pH 7.4) were recorded. Final fluorescence intensity was then divided by the initial florescence intensity at the same fluorogen concentration leading to the fluorescence enhancement ratio for the fluorogen.

[2] = Photophysical properties (absorbance/excitation and fluorescence emission maxima, fluorescence intensity); assay type: physicochemical; details: for initial fluorescence intensity: before reaction with MPA
Description: as §1, §2

Compound | FE (fluorescence enhancement ratio) [1] | λem MPA adduct ([2]; di-MPA adduct in HEPES/DMSO 5%) [nm] | λex MPA adduct ([2]; di-MPA adduct in HEPES/DMSO 5%) [nm] | λem ([2]; fluorogen in HEPES/DMSO 5%) [nm] | λex ([2]; fluorogen in HEPES/DMSO 5%) [nm] | fluorescence intensity increase upon reaction with MPA ([1]; pure DMSO) | melting point [°C] | initial fluorescence intensity ([2]; aqueous media (HEPES/5% DMSO)) | λem MPA adduct ([2]; di-MPA adduct in DMSO) [nm] | λex MPA adduct ([2]; di-MPA adduct in DMSO) [nm] | λem ([2]; fluorogen in DMSO) [nm] | λex ([2]; fluorogen in DMSO) [nm] | initial fluorescence intensity ([2]; pure DMSO)
8-(3′,5′-di-(3-methylmaleimido)-phenyl-4,4-difluoro-4-bora-3a,4a-diaza-s-indacene [Fluorogen 13] | 3.5 | 514 | 510 | 514 | 510 | – | – | – | – | – | – | – | –
COc1ccc2cc(C(=O)NCc3cc(N4C(=O)C=C(C)C4=O)cc(N4C(=O)C=C(C)C4=O)c3)c(=O)oc2c1 [Fluorogen 11, 7-Methoxy-3-(3,5-di-(3-methylmaleimido)benzyl)aminocarbonyl coumarin] | 6.4 | 404 | 347 | 404 | 347 | – | – | – | – | – | – | – | –
CC1=CC(=O)N(c2cc(NS(=O)(=O)c3cccc4c(N(C)C)cccc34)cc(N3C(=O)C=C(C)C3=O)c2)C1=O [Fluorogen 5, N-Dansyl-3,5-di-(3-methylmaleimido)aniline] | – | 520 | 325 | 520 | 325 | over 300 fold | 230 | at the level of the background noise | 540 | 350 | 540 | 345 | approximately 2
8-(2′,6′-di-((4″-(3-methylmaleimido)phenyl)ethynyl))-4,4-difluoro-4-bora-3a,4a-diaza-s-indacene [Fluorogen 17] | 6.4 | – | – | – | – | – | – | – | – | – | – | – | –
